The target of assay [1] is T1, 5-HT uptake (Rattus norvegicus, UniProt P31652).
T1 construct: from tissue; host or cells: rat brain synaptosomes (P2 fraction) from marrow (medulla) and pons
Kind of assay: Inhibition of 5-HT uptake in rat brain synaptosomes. The assay is classed as biochemical. To be noted: rat synaptosomes (medulla and pons), [3H]-5-HT.

The target of assay [2] is T2, NA transporter (Rattus norvegicus, UniProt Q63380).
T2 construct: from tissue; host or cells: rat brain synaptosomes (P2 fraction) from hypothalamus
Kind of assay: Inhibition of noradrenaline uptake in rat brain synaptosomes. The assay is classed as biochemical. As to conditions: for inhibition at 10 µM: read-out: % Inhibition of NA uptake [10 μM]. How it is done:
II. […] For in vitro studies, synaptosomes of rat brain areas are freshly isolated, as described in the article “The isolation of nerve endings from brain” by E. G. Gray and […]. Anatomy 96, pages 79-88, 1962. The relevant literature reference is enclosed herein by reference and is to be regarded as part of the disclosure. […] The homogenate is centrifuged at 4° C. for 10 minutes at 1000 g. […] The respective uptake was measured in a 96 well microtiter plate. The volume was 250 μL and the incubation was carried out at room temperature (ca 20-25° C.) under a blanket of oxygen. […] The 96 samples through were then filtered through a Unifilter GF/B® microtiter plate (Packard) and washed with 200 mL of incubated buffer with the aid of a “Brabdel Cell-Harvester MPXRI 96T”. The Unifilter GF/B plate was dried at 55° C. over a period of 1 h. The plate was then sealed with a back seal® (Packard) and there were then added 35 μL of scintillant fluid per well (Ultima Gold, Packard). Following sealing with a top seal® (Packard) and following adjustment of the equilibrium (approximately over a period of 5 h), the radioactivity is determined in a 1450 Microbeta® (Wallac). […] The amount of protein used in the above determination corresponded to the values known from the literature, such as is described in “Protein measurement with the folin phenol reagent”, Lowry et al., J. Biol. Chem., 193, 265-275, 1951. A detailed description of the method is disclosed in the literature, for example, in […], and B. […] The relevant literature references are incorporated herein by reference and are to be regarded as part of the disclosure.

For assay [3], the system named is phenylquinone-induced writhing reactions in mice. The assay is described as follows: Analgesic test using the phenylquinone-induced writhing test on mice. The assay is classed as in vivo, mouse. To be noted: male NMRI mice, phenylquinone i.p. How it is done: I. Analgesic Test Using the Writhing Test on Mice
The analysis of analgesic activity is carried out using the phenylquinone-induced writhing assay in mice, modified as described in the article by I. C. Hendershot and J. Forsaith ((1959) in J. Pharmacol. Exp. Ther. 125, 237-240. The relevant description is incorporated herein by reference and is to be regarded as part of the present disclosure.
For the present purpose, male NMRI mice are used having a weight of from 25 to 30 g. Groups of 10 animals per substance dose receive, 10 minutes after an intravenous dose of test substances, an intraperitoneal administration of 0.3 ml/mouse of a 0.02% strength aqueous solution of phenylquinone (phenylbenzoquinone, obtainable from Sigma, Deisenhofen; solution produced with the addition of 5% of ethanol and storage in a water bath at 45° C.). The animals are placed individually in observation cages. Using a pushbutton counter, the number of pain-induced stretching movements (so-called writhing reactions=straightening of the body accompanied by stretching of the rear extremities) was counted over a period of from 5 to 20 minutes following the administration of phenylquinone. The control is provided by animals receiving only physiological saline. All substances are tested using the standard dosage of 10 mg/kg. […]

[4] abbreviates: 10 μM, rat synaptosomes (hypothalamus), [3H]-NA.

Like-named read-outs stand apart in the source and are kept apart here.

T1 sequence (P31652 whole entry): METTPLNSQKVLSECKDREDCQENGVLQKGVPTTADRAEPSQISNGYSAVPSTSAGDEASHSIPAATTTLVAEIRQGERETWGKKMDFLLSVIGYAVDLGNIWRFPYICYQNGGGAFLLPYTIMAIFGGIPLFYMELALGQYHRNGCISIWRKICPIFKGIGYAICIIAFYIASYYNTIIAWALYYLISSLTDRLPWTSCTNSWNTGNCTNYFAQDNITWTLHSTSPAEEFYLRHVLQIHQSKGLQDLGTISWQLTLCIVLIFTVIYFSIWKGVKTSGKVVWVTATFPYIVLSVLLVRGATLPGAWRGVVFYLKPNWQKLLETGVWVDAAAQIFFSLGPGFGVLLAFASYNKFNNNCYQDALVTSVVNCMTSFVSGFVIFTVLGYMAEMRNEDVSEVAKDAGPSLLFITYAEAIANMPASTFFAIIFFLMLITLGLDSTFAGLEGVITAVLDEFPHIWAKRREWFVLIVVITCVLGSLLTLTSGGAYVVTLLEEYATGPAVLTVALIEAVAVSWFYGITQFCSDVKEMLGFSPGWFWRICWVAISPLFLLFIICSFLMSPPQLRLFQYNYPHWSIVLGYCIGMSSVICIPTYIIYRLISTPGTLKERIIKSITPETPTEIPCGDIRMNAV
T2 sequence (Q63380 1-617): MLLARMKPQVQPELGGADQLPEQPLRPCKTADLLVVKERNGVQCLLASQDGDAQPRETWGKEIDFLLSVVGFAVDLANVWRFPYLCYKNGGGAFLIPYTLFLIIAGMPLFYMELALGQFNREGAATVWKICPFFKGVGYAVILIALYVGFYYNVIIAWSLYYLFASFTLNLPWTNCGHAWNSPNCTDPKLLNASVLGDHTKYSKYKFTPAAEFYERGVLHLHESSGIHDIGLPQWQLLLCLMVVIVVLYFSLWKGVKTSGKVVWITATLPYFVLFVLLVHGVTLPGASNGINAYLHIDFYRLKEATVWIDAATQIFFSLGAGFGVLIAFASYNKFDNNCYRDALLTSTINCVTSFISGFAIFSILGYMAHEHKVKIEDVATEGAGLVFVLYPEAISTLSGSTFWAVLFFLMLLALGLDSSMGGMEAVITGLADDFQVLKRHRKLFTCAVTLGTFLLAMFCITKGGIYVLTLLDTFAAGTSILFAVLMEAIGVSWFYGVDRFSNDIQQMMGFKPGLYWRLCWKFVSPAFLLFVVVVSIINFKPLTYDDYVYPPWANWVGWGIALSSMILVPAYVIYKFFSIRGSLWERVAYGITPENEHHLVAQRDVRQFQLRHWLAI

As for `CC=CC=CC(=O)Nc1nc2c(s1)CCCC2C(=O)NCC1CCN(Cc2c(Cl)cccc2Cl)C1` (stereo not drawn) [Example 49, 2-Hexa-2,4-dienoylamino-4,5,6,7-tetrahydrobenzthiazol-4-carboxylic acid[1-(2,6-dichlorobenzyl)pyrrolidin-3-yl]methylamide], the “% Inhibition of 5-HT uptake [10 μM]” value in assay [1] stood at 51%. In addition, in assay [2] (setting [4]), the “% Inhibition of NA uptake [10 μM]” value came to 44%.
By inhibition is commonly meant the percentage by which the read-out fell short of the control. Take `CCOc1ccc(Br)cc1CN1CCC(NC(=O)C2CCCc3sc(NC(=O)c4ccco4)nc32)C1` (stereo not drawn) [Example 50, 2-[(Furan-2-carbonyl)amino]-4,5,6,7-tetrahydrobenzthiazol-4-carboxylic acid [1-(5-bromo-2-ethoxybenzyl)pyrrolidin-3-yl]amide]: the inhibition at 10 µM in assay [1] worked out at 72%; in assay [2] (setting [4]) it was 93%.
Regarding `O=C(CCc1ccccc1)Nc1nc2c(s1)CCCC2C(=O)NCC1CCN(Cc2ccc(-c3ccccc3)cc2)C1` (stereo not drawn) [Example 55, 2-(3-Phenylpropionylamino)-4,5,6,7-tetrahydrobenzthiazol-4-carboxylic acid (1-biphenyl-4-ylmethylpyrrolidin-3-yl)methylamide], the inhibition at 10 µM in assay [1] is 54%; in assay [2] (setting [4]), 44%.
On to `CC=CC=CC(=O)Nc1nc2c(s1)CCCC2C(=O)NCC1CCN(Cc2c(F)cccc2Cl)C1` (stereo not drawn) [Example 61, 2-Hexa-2,4-dienoylamino-4,5,6,7-tetrahydrobenzthiazol-4-carboxylic acid[1-(2-chloro-6-fluorobenzyl)pyrrolidin-3-yl]methylamide], for which, in assay [1], the “% Inhibition of 5-HT uptake [10 μM]” value is 46%. Further, the “% Inhibition of NA uptake [10 μM]” value in assay [2] (setting [4]) stood at 45%.
For `O=C(Nc1nc2c(s1)CCCC2C(=O)N1CCN(c2ccccn2)CC1)c1ccoc1` (stereo not drawn) [Example 64, Furan-3-carboxylic acid[4-(4-pyridin-2-ylpiperazin-1-carbonyl)-4,5,6,7-tetrahydrobenzthiazol-2-yl]amide], the “% Inhibition of 5-HT uptake [10 μM]” value in assay [1] amounted to 48%. Moreover, in assay [2] (setting [4]), the “% Inhibition of NA uptake [10 μM]” value stood at 53%.
As for `O=C(CC1CCCCC1)Nc1nc2c(s1)CCCC2C(=O)NCC1CCN(Cc2c(Cl)cccc2Cl)C1` (stereo not drawn) [Example 67, 2-(2-cyclohexylacetylamino)-4,5,6,7-tetrahydrobenzthiazol-4-carboxylic acid[1-(2,6-dichlorobenzyl)pyrrolidin-3-yl]methylamide], in assay [1], the “% Inhibition of 5-HT uptake [10 μM]” value was determined as 97%. Moreover, the “% Inhibition of NA uptake [10 μM]” value in assay [2] (setting [4]) is listed as 42%.
On to `O=C(Nc1nc2c(s1)CCCC2C(=O)N1CCN(CCc2ccccc2)CC1)c1ccoc1` (stereo not drawn) [Example 71, Furan-3-carboxylic acid[4-(4-phenethylpiperazin-1-carbonyl)-4,5,6,7-tetrahydrobenzthiazol-2-yl]amide], for which the “% Inhibition of 5-HT uptake [10 μM]” value in assay [1] was 66%. Further, in assay [2] (setting [4]), the “% Inhibition of NA uptake [10 μM]” value is on record as 90%.
As to `O=C(CCc1ccccc1)Nc1nc2c(s1)CCCC2C(=O)N1CCN(c2cccc(C(F)(F)F)c2)CC1` (stereo not drawn) [Example 72, 3-Phenyl-N-{4-[4-(3-trifluoromethylphenyl)piperazin-1-carbonyl]-4,5,6,7-tetrahydrobenzthiazol-2-yl}propionamide], the inhibition at 10 µM in assay [1] came to 84%; in assay [2] (setting [4]) it was 51%.
Regarding `CC(C)(C)CC(=O)Nc1nc2c(s1)CCCC2C(=O)NC1CCN(Cc2ccccc2OCc2ccccc2)C1` (stereo not drawn) [Example 73, 2-(3,3-Dimethylbutyrylamino)-4,5,6,7-tetrahydrobenzthiazol-4-carboxylic acid [1-(2-benzyloxybenzyl)pyrrolidin-3-yl]amide], the inhibition at 10 µM is 71% in assay [1] and 75% in assay [2] (setting [4]).
As for `CCOc1ccccc1C(=O)Nc1nc2c(s1)CCCC2C(=O)N1CCN(C(C)c2ccccc2)CC1` (stereo not drawn) [Example 75, 2-Ethoxy-N-{4-[4-(1-phenylethyl)piperazin-1-carbonyl]-4,5,6,7-tetrahydrobenzthiazol-2-yl}benzamide], the inhibition at 10 µM was 59% in assay [1] and 51% in assay [2] (setting [4]).
On to `O=C(CC1CCCCC1)Nc1nc2c(s1)CCCC2C(=O)NCC1CCN(Cc2c(F)cccc2Cl)C1` (stereo not drawn) [Example 78, 2-(2-Cyclohexylacetylamino)-4,5,6,7-tetrahydrobenzthiazol-4-carboxylic acid [1-(2-chloro-6-fluorobenzyl)pyrrolidin-3-yl]methylamide], for which the inhibition at 10 µM in assay [1] is 54%; in assay [2] (setting [4]), 41%.
Regarding `O=C(Cc1ccc(F)cc1)Nc1nc2c(s1)CCCC2C(=O)N1CCN(c2ccccc2Cl)CC1` (stereo not drawn) [Example 81, N-{4-[4-(2-Chlorophenyl)piperazin-1-carbonyl]-4,5,6,7-tetrahydrobenzthiazol-2-yl}-2-(4-fluorophenyl)acetamide], the figures for the inhibition at 10 µM in assay [1] and in assay [2] (setting [4]) were 50% and 80%, respectively.
For the molecule `CC(C)(C)CC(=O)Nc1nc2c(s1)CCCC2C(=O)N1CCN(Cc2ccccc2)CC1` (stereo not drawn) [Example 82, N-[4-(4-Benzylpiperazin-1-carbonyl)-4,5,6,7-tetrahydrobenzthiazol-2-yl]-3,3-dimethylbutyramide], the inhibition at 10 µM in assay [1] is 41%; in assay [2] (setting [4]) it was 64%.
With `CC(C)(C)CC(=O)Nc1nc2c(s1)CCCC2C(=O)N1CCN(CC=Cc2ccccc2)CC1` (stereo not drawn) [Example 87, 3,3-Dimethyl-N-{4-[4-(3-phenylallyl)piperazin-1-carbonyl]-4,5,6,7-tetrahydrobenzthiazol-2-yl}butyramide], the inhibition at 10 µM came to 56% in assay [1] and 46% in assay [2] (setting [4]).
As to `O=C(Nc1nc2c(s1)CCCC2C(=O)N1CCN(c2ccccc2)CC1)c1ccco1` (stereo not drawn) [Example 89, Furan-2-carboxylic acid[4-(4-phenylpiperazin-1-carbonyl)-4,5,6,7-tetrahydrobenzthiazol-2-yl]amide], the inhibition at 10 µM in assay [2] amounted to 77%. Besides, the “% Inhibition of writhing reactions at 10 mg/kg intravenous” value in assay [3] is recorded as 41%.

The values are drawn from patent publication US7348347B2, “Substituted 4,5,6,7-tetrahydrobenzthiazol-2-ylamine compounds” (Gruenenthal GmbH, priority 2004, dated 2008).
